Experimental data from paper PMC11785791, “Cryo-EM structure of the calcium-sensing receptor complexed with the kokumi substance γ-glutamyl-valyl-glycine” (Scientific Reports, 2025).
Changes are numbered by the printed parent chain. Where two headings read alike, the source gives them in different places. *1 amine or outer side, *2 acyl side, *3 side chain or, on linkers, in order; H or OH if unused. Where a SMILES comes first, the peptide text is derived from it. γGlu = O=C(O)[CH](CCC(=O)[*:2])N[*:1]

Experiments:
human CaSR N102F mutant = molecular target: T1, human CaSR N102F mutant (Homo sapiens, UniProt P41180, N102F); experiment: Calcium mobilization assay, CaSR N102F mutant; assay type: cell-based; conditions: for Response in calcium mobilization assay: in words, compared with wild type; for Emax: read-out: Emax (% of wild-type values)
T1 construct: (N); expressed in transfected cells; host or cells: PEAKrapid cells (ATCC), pcDNA 3.1, transient transfection
T1 sequence (P41180 20-1078 N102F): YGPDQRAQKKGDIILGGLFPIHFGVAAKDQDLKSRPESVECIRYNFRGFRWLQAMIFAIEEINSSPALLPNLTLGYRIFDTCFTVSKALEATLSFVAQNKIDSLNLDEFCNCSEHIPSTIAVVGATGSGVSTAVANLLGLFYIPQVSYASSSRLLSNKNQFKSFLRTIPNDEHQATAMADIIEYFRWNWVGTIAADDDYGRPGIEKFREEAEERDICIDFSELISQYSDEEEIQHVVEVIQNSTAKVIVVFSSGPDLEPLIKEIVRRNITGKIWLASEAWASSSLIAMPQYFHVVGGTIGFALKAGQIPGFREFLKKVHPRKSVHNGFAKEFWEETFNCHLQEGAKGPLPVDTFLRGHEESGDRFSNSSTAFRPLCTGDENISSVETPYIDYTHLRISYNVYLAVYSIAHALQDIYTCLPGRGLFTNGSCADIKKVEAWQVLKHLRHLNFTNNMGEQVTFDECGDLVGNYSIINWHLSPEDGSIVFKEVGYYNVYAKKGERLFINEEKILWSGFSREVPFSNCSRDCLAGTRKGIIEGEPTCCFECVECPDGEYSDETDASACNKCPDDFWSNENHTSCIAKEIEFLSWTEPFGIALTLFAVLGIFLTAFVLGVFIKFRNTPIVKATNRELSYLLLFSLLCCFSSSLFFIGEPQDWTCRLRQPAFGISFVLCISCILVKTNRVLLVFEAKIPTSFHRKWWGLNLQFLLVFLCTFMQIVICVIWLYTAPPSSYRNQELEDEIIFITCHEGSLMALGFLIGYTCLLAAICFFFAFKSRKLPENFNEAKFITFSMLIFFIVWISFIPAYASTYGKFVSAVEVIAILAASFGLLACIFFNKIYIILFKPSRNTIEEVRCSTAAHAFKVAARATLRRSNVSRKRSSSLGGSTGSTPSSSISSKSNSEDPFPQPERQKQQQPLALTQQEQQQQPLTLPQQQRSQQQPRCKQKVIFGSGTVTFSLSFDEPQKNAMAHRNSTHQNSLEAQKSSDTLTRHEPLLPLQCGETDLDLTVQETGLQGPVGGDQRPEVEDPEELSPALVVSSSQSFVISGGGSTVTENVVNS
Method: (§1) The CaSR receptor responsiveness was assessed by using PEAK^rapid cells (ATCC, Manassas, VA, USA) transiently transfected with the receptor DNA by the method reported by Kitajima et al.[6]. Briefly, human CaSR or its mutant cDNA with a signal sequence (MAFYSCCWVLLALTWHTSA) followed by FLAG-tag (DYKDDDDK) were inserted into pcDNA 3.1 expression vectors in Opti-MEM I medium (Thermo Fisher Scientific), mixed with FuGENE 6 (Roche), and poured onto PEAK^rapid cells grown at a submaximal concentration. After culturing for 24 h in 96-well plates, the cells were incubated with 5 µM Calcium-5 solution (Calcium-5 assay kit, Molecular Devices) for 45–60 min, and measurements were performed using a plate reader (FDSS/µCELL, Hamamatsu Photonics, Shizuoka, Japan) and its associated software. The activation of CaSR expressed in cells increases the intracellular Ca^2+ concentration, which is measured using a Ca^2+-sensitive dye. The binding of Ca^2+ to the Ca^2+-sensitive dye increases dye fluorescence, with excitation at 485 nm and emission at 525 nm. Test compounds were dissolved and administered in the assay buffer (146 mM NaCl, 1 mM MgSO4, 20 mM HEPES, 1 mM CaCl2, 2.5 mM probenecid, and 1.39 mM glucose, pH 7.4). Transiently transfected cells were challenged with compounds and compared with the vehicle alone and/or mock-transfected cells. The concentration dependence of the fluorescence intensity (influx of Ca^2+) was analyzed using the plate reader at 1 s intervals for 180 s. For the dose–response curve calculations, peak fluorescence responses after the addition of compounds were corrected for, normalized to the background fluorescence (ΔF/F = –F − F0)/F0), and baseline noise was subtracted. Dose–response curves were calculated by non-linear regression using GraphPad PRISM 8.0.

human CaSR R66A mutant = molecular target: T2, human CaSR R66A mutant (Homo sapiens, UniProt P41180, R66A); experiment: Calcium mobilization assay, CaSR R66A mutant; assay type: cell-based; conditions: for Response in calcium mobilization assay: in words; for EC50: mean ± s.e.m., n = 3
T2 construct: (N); expressed in transfected cells; host or cells: PEAKrapid cells (ATCC), pcDNA 3.1, transient transfection
T2 sequence (P41180 20-1078 R66A): T1 sequence (P41180 20-1078 N102F) with R47A, F83N
Method: as §1

[1] = N102F mutant, mean ± s.e.m., n = 3, read-out: EC50

| Structure (SMILES) | Emax (% of wild-type values) (human CaSR N102F mutant; N102F mutant) | Response in calcium mobilization assay (human CaSR N102F mutant; N102F mutant) | EC50 (human CaSR N102F mutant; [1]) | Response in calcium mobilization assay (human CaSR R66A mutant; R66A mutant) | Emax (human CaSR N102F mutant; N102F mutant) | EC50 of N102F mutant relative to wild-type EC50 (human CaSR N102F mutant; 6.52 / 0.18, N102F vs wild type) | EC50 (human CaSR N102F mutant; N102F mutant, read-out: EC50 of the N102F mutant) | Emax (human CaSR N102F mutant) | EC50 (human CaSR R66A mutant; R66A mutant, ND not detected) | Emax (human CaSR R66A mutant; read-out: Emax (% of wild-type values)) | Emax (% of wild-type values) (human CaSR R66A mutant; R66A mutant) | EC50 (human CaSR R66A mutant; R66A mutant) |
| --- | --- | --- | --- | --- | --- | --- | --- | --- | --- | --- | --- | --- |
| CC(C)[C@H](NC(=O)CC[C@H](N)C(=O)O)C(=O)O [γ-EV, γ-glutamyl-valine] | 194.8 % of WT | more active than the wild type | 4.48 ± 0.2 µM | no response |  |  |  |  |  |  |  |  |
| N[C@@H](Cc1ccc(O)cc1)C(=O)O [L-Tyr, L-tyrosine] |  | more active than the wild type | 2160 ± 400 µM | no response | 132% |  |  |  |  |  |  |  |
| CC(C)C(NC(=O)CCC(N)C(=O)O)C(=O)NCC(=O)O (stereo not drawn) [γ-EVG, γ-glutamyl-valyl-glycine] (γGlu-Val-Gly-OH; configuration not given here) |  |  |  | reduced its function compared to the wild-type |  | approximately 36.2 fold | 6.52 ± 0.1 µM | 95.7% | 18.9 ± 0.5 µM | 53.6% |  |  |
| [Ca+2].[Cl-].[Cl-] [CaCl2] | 87.8 % of WT |  | 2750 ± 210 µM |  |  |  |  |  |  |  | 107.2 % of WT | 3870 ± 500 µM |
